Laboratory results published in PubChem BioAssay AID1552 (Sanford-Burnham Center for Chemical Genomics, 2009).
Calls of active or inactive are those of the source. How the calls were made is not given here.

target: Ubiquitin-conjugating enzyme E2 N (Homo sapiens) (UniProt P61088); experiment: NMR detection of UBE2N ligand binding – biophysical, purified protein (AID 1552); settings: NMR binding to purified UBE2N
Sequence (P61088 whole entry, looked up): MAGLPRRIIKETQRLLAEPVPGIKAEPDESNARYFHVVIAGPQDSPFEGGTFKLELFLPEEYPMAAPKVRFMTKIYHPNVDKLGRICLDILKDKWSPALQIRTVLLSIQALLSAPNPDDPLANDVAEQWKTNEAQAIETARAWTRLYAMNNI

| SMILES | Kd |
| --- | --- |
| O=c1c(-c2ccco2)[n+]([O-])c2ccccc2n1O | > 4 mM (inactive) |
| Nc1ccc2[nH]ccc2c1 | > 4 mM (inactive) |
| CS(=O)(=O)c1ccc(N)cc1 | > 4 mM (inactive) |
| CC1(C)N=C2C(=N)C=CC=C2N1O | > 4 mM (inactive) |
| CCCCn1c(S(=O)(=O)O)nc2ccccc21 | > 4 mM (inactive) |
| Nc1nc2c3ccccc3nc(Cc3ccccc3)n2n1 | > 4 mM (inactive) |
| CC(C)Oc1ccc(NC(N)=O)cc1 | > 4 mM (inactive) |
| O=C(NCCO)NC(=S)c1ccccc1 | > 4 mM (inactive) |
| O=C1NC(=O)C(C(C[N+](=O)[O-])c2ccc(O)cc2)C(=O)N1 (stereo not drawn) | > 4 mM (inactive) |
| CCCNC(=O)c1cnc2n(c1=O)CCS2 | > 4 mM (inactive) |
| Cc1nnc(SCc2cccs2)[nH]c1=O | > 4 mM (inactive) |
| CC(C)(C)c1cc(NC(=O)c2cccnc2)no1 | > 4 mM (inactive) |
| CC1(C)CC[C@]2(C)CC[C@]3(C)C(=CCC4[C@@]5(C)CC[C@H](O)C(C)(C)C5CC[C@]43C)C2C1 (stereo partly drawn) | > 4 mM (inactive) |
| Cc1ccc(C2NS(=O)(=O)N=C2N)cc1 (stereo not drawn) | > 4 mM (inactive) |
| O=C(NCCO)c1cc2ccccc2cc1O | > 4 mM (inactive) |
| COc1ccc2c(c1)OCc1c-2oc2cc(OC)ccc12 | > 4 mM (inactive) |
| O=C1c2ccccc2-c2ncnc3cccc1c23 | > 4 mM (inactive) |
| Clc1ccccc1OCc1nc(-c2ccccn2)no1 | > 4 mM (inactive) |
| Cc1noc(C)c1CSc1nc2ccccc2[nH]1 | > 4 mM (inactive) |
| C=CCCCCCCCCCCCC(O)CC(O)CO (stereo not drawn) (tested in a mixture with another compound) | > 4 mM (inactive) |
| Cc1ccc(C)n1NC(=O)c1ccco1 | > 4 mM (inactive) |
| CSc1nc2cc(F)c(F)cc2n1C | > 4 mM (inactive) |
| COc1ccc2c(=O)c(CC(=O)O)coc2c1 | > 4 mM (inactive) |
| O=S1(=O)CCC(NC(=S)N2CCOCC2)C1 (stereo not drawn) | > 4 mM (inactive) |

| SMILES | Kd |
| --- | --- |
| CC(=O)O[C@@H]1CC2C(C)(C)C(=O)C=C[C@]2(C)C2CC[C@]3(C)C(=CC(=O)O[C@H]3c3ccoc3)[C@@]21C (stereo partly drawn) | > 4 mM (inactive) |
| Cc1[nH]c2ccccc2c1Cc1n[nH]c(=S)n1C | > 4 mM (inactive) |
| N#Cc1c(N)c(C(=O)c2ccccc2)n2c1CCC2 | > 4 mM (inactive) |
| NCC1COc2ccccc2O1 (stereo not drawn) | > 4 mM (inactive) |
| Cc1ccc(SCc2cc(=O)n3[nH]cnc3n2)cc1 | > 4 mM (inactive) |
| COc1ccc(C)cc1-n1c(-c2ccncc2)n[nH]c1=S | > 4 mM (inactive) |
| Cn1ncc(C(=O)NC2CCCCC2)c1Cl | > 4 mM (inactive) |
| Nc1cccnc1Oc1ccc(F)cc1F | > 4 mM (inactive) |
| Cc1cc2c(nn1)CCc1nonc1-2 | > 4 mM (inactive) |
| CNS(=O)(=O)c1cccs1 | > 4 mM (inactive) |
| C/C=C(\C)c1nnc(NC(=O)C(C)C)s1 | > 4 mM (inactive) |
| OCc1cc2ccccc2o1 | > 4 mM (inactive) |
| CC1=C2[C@H]3OC(=O)[C@@H](C)[C@@H]3CC[C@@]2(C)C=CC1=O | > 4 mM (inactive) |
| COc1ccccc1NS(=O)(=O)c1c[nH]c(=O)[nH]c1=O | > 4 mM (inactive) |
| O=C(/C=C/c1ccco1)NC1=NCCS1 | > 4 mM (inactive) |
| Nc1ccc(N2CCCCC2)cc1 | > 4 mM (inactive) |
| COc1ccc(C[C@H]2NC[C@H](O)[C@H]2OC(C)=O)cc1 | > 4 mM (inactive) |
| O=C(O)CCn1c(=O)oc2ccccc21 | > 4 mM (inactive) |
| CC(C)=CCC[C@](C)(O)C1CC=C(C)CC1 (stereo partly drawn) | > 4 mM (inactive) |
| O=C1CNC(=O)N1Cc1ccc(F)cc1 | > 4 mM (inactive) |
| CC(=O)CC1(O)C(=O)Nc2ccc(Br)cc21 (stereo not drawn) | > 4 mM (inactive) |
| O=C(O)c1cc2ccccc2o1 | > 4 mM (inactive) |
| O=C(Nc1ccccc1)c1cnc2n(c1=O)CCS2 | > 4 mM (inactive) |
| Cn1c(=O)[nH]c(=O)c2c1ncn2CCN1CCCCC1 | > 4 mM (inactive) |

| SMILES | Kd |
| --- | --- |
| O=c1ccc2nc3ccccc3c(=O)n2[nH]1 | > 4 mM (inactive) |
| CCOC(=O)c1c(C)[nH]c2ccc(O)cc12 | > 4 mM (inactive) |
| Cc1noc(C)c1C(=O)N1CCC2(CC1)OCCO2 | > 4 mM (inactive) |
| Cc1nnc(NCc2cccnc2)[nH]c1=O | > 4 mM (inactive) |
| CC(=O)c1cccc(NC(=O)Nc2c(C)nn(C)c2C)c1 | > 4 mM (inactive) |
| CNC(=O)C1CCCN(S(C)(=O)=O)C1 (stereo not drawn) | > 4 mM (inactive) |
| Cc1nc2ccccc2c(=O)n1/N=C/c1ccco1 | > 4 mM (inactive) |
| CC(NC(=O)c1ccco1)c1ccc2c(c1)OCCO2 (stereo not drawn) | > 4 mM (inactive) |
| COc1ccc(S(=O)(=O)N2CCC(C(N)=O)CC2)cc1 | > 4 mM (inactive) |
| Nc1c(C(=O)O)sc2ncccc12 | > 4 mM (inactive) |
| COc1ccc(C)cc1S(=O)(=O)Nc1ccccc1C | > 4 mM (inactive) |
| O=C1OC(N2CCOCC2)c2ccccc21 (stereo not drawn) | > 4 mM (inactive) |
| CC(=O)Nc1ccc(S(=O)(=O)NCC2CCCO2)cc1 (stereo not drawn) | > 4 mM (inactive) |
| CC(=O)NC(=S)Nc1ccc(N(C)C(C)=O)cc1 | > 4 mM (inactive) |
| NC(=O)CN1CC(=O)NC(=O)C1 | > 4 mM (inactive) |
| CS(=O)(=O)NN=C1CCCCC1 | > 4 mM (inactive) |
| C[C@@H]1CC[C@@]2(OC1)OC1C(O)C3C4CC[C@H]5C[C@H](O[C@@H]6O[C@H](CO)[C@H](O[C@@H]7O[C@H](CO)[C@@H](O)[C@H](O[C@@H]8OC[C@@H](O)[C@H](O)[C@H]8O)[C@H]7O[C@@H]7O[C@H](CO)[C@H](O)[C@H](O[C@@H]8O[C@H](CO)[C@@H](O)[C@H](O)[C@H]8O)[C@H]7O)[C@H](O)[C@H]6O)[C@H](O)C[C@]5(C)C4CC[C@]3(C)C1[C@@H]2C (stereo partly drawn) | > 4 mM (inactive) |
| O=C1c2ccncc2C(=O)N1CO | > 4 mM (inactive) |
| NC(=O)CCN1C(=O)c2ccccc2C1=O | > 4 mM (inactive) |
| COc1cc([C@@H]2c3cc4c(cc3C(OC3O[C@@H]5COC(C)O[C@H]5[C@H](O)[C@H]3O)C3COC(=O)[C@@H]32)OCO4)cc(OC)c1O (stereo partly drawn) | > 4 mM (inactive) |
| CSc1ccccc1NC(=O)c1ccc(C)o1 | > 4 mM (inactive) |
| CNC(=O)N1CCN(C(=O)NC)CC1 | > 4 mM (inactive) |
| NCc1cccc2c1OCCCO2 | > 4 mM (inactive) |
| O=C(O)c1ccc(NCc2cccnc2)cc1 | > 4 mM (inactive) |

| SMILES | Kd |
| --- | --- |
| COc1cc2ccc(=O)oc2c(OC)c1OC | > 4 mM (inactive) |
| OCc1cccc2c1OCO2 | > 4 mM (inactive) |
| COC(=O)c1ccc2nsnc2c1 | > 4 mM (inactive) |
| S=C(c1ccc2c(c1)OCO2)N1CCCC1 | > 4 mM (inactive) |
| C=C1CSc2nc(=O)c3c(C)c(C)sc3n21 | > 4 mM (inactive) |
| OC1CCN(c2nccc(C(F)(F)F)n2)CC1 | > 4 mM (inactive) |
| O=C(O)c1ccccc1N1CCOCC1 | > 4 mM (inactive) |
| CC1=C/C(=C\c2c(O)[nH]c(=O)[nH]c2=O)C(C)=N1 | > 4 mM (inactive) |
| OCc1ncoc1-c1ccccc1 | > 4 mM (inactive) |
| Cc1cc(C(=O)Nc2sc(C)c(C)c2C#N)c(C)o1 | > 4 mM (inactive) |
| O=C(O)c1cncc(-c2cccs2)c1 | > 4 mM (inactive) |
| O=C1C=C(O)c2ccccc2C1=O | > 4 mM (inactive) |
| O=C(Nc1ccon1)c1cccc(Cl)c1 | > 4 mM (inactive) |
| Cn1c(C(=O)O)ccc1S(N)(=O)=O | > 4 mM (inactive) |
| NCc1ccc(-c2cccs2)s1 | > 4 mM (inactive) |
| O=CN1CCN(C(=O)c2ccccc2F)CC1 | > 4 mM (inactive) |
| CC(C)(C)NC(=O)N1CCC(C(N)=O)CC1 | > 4 mM (inactive) |
| Nc1ccc(F)cc1F | > 4 mM (inactive) |
| COc1ccc2nc(SCC(N)=O)[nH]c2c1 | > 4 mM (inactive) |
| O=C(O)CCCc1nc2ccccc2s1 | > 4 mM (inactive) |
| Nc1ncnc2c1ncn2CCN1CCCCC1 | > 4 mM (inactive) |
| COc1ccc(N2CC(=O)NC2=O)cc1 | > 4 mM (inactive) |
| COc1ccc2c(c1)OC/C(=C/c1ccc(O)c(O)c1)C2=O | > 4 mM (inactive) |
| O=C(O)c1cncc(-c2ccccc2)c1 | > 4 mM (inactive) |

| SMILES | Kd |
| --- | --- |
| NC(CC(=O)O)c1ccccc1 (stereo not drawn) | > 4 mM (inactive) |
| O=C(CSc1ccc(Cl)cc1)N1CCOCC1 | > 4 mM (inactive) |
| Cc1noc(C)c1C(=O)Nc1ccccn1 | > 4 mM (inactive) |
| Cc1occc1C(=O)Nc1ccc(C(N)=O)cc1 | > 4 mM (inactive) |
| COC(=O)[C@]1(C)CC[C@]2(C)CC[C@]3(C)C4=CC=C5C(=CC(=O)C(O)=C5C)[C@]4(C)CC[C@@]3(C)[C@@H]2C1 | > 4 mM (inactive) |
| NC(=S)N1CCC(c2ccccc2)=N1 | > 4 mM (inactive) |
| CC(=O)CC1(O)C(=O)Nc2ccccc21 (stereo not drawn) | > 4 mM (inactive) |
| COc1cc2c(cc1OC)[C@@]13CCN4CC5=CCOC6CC(=O)N2C1[C@H]6[C@H]5C[C@H]43 (stereo partly drawn) | > 4 mM (inactive) |
| CC(C)=NNC(=O)C(=O)Nc1ccc(F)cc1 | > 4 mM (inactive) |
| C=CCn1c(-c2ccc(O)cc2)n[nH]c1=S | > 4 mM (inactive) |
| Cn1nc(C(=O)Nc2cccnc2)c2ccccc2c1=O | > 4 mM (inactive) |
| O=C(O)CNc1ncnc2nc[nH]c12 | > 4 mM (inactive) |
| CC(=O)Nc1sccc1C(N)=O | > 4 mM (inactive) |
| NC(=O)CCn1c(=O)oc2ccccc21 | > 4 mM (inactive) |
| O=C(O)CSc1cccc2cccnc12 | > 4 mM (inactive) |
| Cn1cc(Cl)c(C(=O)Nc2ccncc2)n1 | > 4 mM (inactive) |
| COc1ccc2ccc(=O)oc2c1CC=C(C)C | > 4 mM (inactive) |
| COC(=O)C(O)c1ccccc1 (stereo not drawn) | > 4 mM (inactive) |
| C=CC1=C(C)/C(=C/c2[nH]c(Cc3[nH]c(/C=C4\NC(=O)C(C)=C4C=C)c(C)c3CCC(=O)O)c(CCC(=O)O)c2C)NC1=O | > 4 mM (inactive) |
| Cc1oc(-c2ccccc2)cc1C(N)=O | > 4 mM (inactive) |
| COc1ccc(NC(=O)C(N)=O)cc1Cl | > 4 mM (inactive) |
| Cc1cc(=O)oc2cc3c(cc12)OCCO3 | > 4 mM (inactive) |
